In ChEMBL document CHEMBL3124763:
The source made the active and inactive calls. The rule behind the calls is not given here. Where a SMILES comes first, the peptide text is derived from it. The star is where a group is joined. Decanoyl = CCCCCCCCCC(=O)*; CH2Cl = ClC*

Target: Furin (Homo sapiens) (UniProt P09958)
Assay: Inhibition of furin in human HEK293FT cells assessed as HA5 maturation at 25 uM after 48 hrs by Western blotting analysis
Format: cell-based

Sequence of Furin (Homo sapiens) (P09958 whole entry): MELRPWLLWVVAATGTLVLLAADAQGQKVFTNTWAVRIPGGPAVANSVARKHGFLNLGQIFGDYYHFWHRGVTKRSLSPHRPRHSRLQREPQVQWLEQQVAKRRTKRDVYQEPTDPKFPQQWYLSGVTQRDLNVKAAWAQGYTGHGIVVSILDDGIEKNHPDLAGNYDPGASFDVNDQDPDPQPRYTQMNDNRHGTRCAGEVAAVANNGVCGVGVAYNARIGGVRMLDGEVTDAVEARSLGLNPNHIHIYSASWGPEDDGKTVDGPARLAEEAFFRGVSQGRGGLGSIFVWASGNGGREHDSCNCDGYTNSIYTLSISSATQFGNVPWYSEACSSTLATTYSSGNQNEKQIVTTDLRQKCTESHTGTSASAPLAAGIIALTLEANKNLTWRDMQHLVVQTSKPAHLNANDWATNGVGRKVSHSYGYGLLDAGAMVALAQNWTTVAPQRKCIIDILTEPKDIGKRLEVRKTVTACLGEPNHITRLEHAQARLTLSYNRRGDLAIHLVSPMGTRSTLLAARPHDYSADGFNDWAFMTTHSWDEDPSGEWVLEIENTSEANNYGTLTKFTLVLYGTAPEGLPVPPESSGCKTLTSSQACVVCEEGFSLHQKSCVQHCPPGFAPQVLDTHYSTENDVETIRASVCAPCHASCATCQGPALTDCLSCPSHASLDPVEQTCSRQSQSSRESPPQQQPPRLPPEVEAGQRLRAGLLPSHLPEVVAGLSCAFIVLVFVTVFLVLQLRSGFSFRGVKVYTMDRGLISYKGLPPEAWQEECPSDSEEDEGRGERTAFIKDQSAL

With `CCCCCCCCCC(=O)N[C@@H](CCCNC(=N)N)C(=O)N[C@H](C(=O)N[C@@H](CCCCN)C(=O)N[C@@H](CCCNC(=N)N)C(=O)CCl)C(C)C` (Decanoyl-RVKR-CH2Cl) the inhibition was “Active”.
